Question: Which melting point does the source give for COc1cc2c(cc1Nc1ncc(Cl)c(N[C@H]3[C@@H](C(N)=O)[C@@H]4C=C[C@H]3C4)n1)NC(=O)CN(CC1CC1)C2 here?
Answer: Its melting point is 152 °C.

Question: For CCSc1ccc(-c2ccncc2)c2c1C(=O)CC(C)C2 (stereo unspecified), which melting point is on record?
Answer: Its melting point is 145 to 147 °C.

Question: With COC(=O)[C@@H]1C(=O)CC[C@H]1C(=O)OC (relative stereo) as the compound, how does the melting point read?
Answer: Its melting point is 49 to 50 °C.

Question: Which melting point does the source give for CCOC(=O)C(C)Oc1ccc(-c2ccc(CCNC(=O)c3cc(Cl)ccc3OC)cc2)cc1 (stereo unspecified) here?
Answer: Its melting point is less than 20 °C.

Question: With N#CC1(C(O)(Cn2cncn2)c2ccc(Cl)cc2)CC1 (stereo unspecified) as the compound, how does the melting point read?
Answer: Its melting point is 107 °C.

Question: For O=c1cc(-c2cc[nH]n2)oc2ccccc12, which melting point is on record?
Answer: The melting point was 143 to 144 °C.

Question: Which melting point does the source give for COc1cc(C(C)=O)ccc1OCCCN1CCC(c2noc3ccc(F)cc23)CC1 here?
Answer: The melting point was 103 to 105 °C.

Question: With COc1ccc(C(=O)NCc2cccc3c2CN(C2CCC(=O)NC2=O)C3=O)cc1 (stereo unspecified) as the compound, how does the melting point read?
Answer: Its melting point is 289 to 291 °C.

Question: Which melting point does the source give for Cc1ccccc1CC(Cc1ccccc1C)C(=O)O here?
Answer: The melting point was 94 to 96 °C.

Question: Which melting point does the source give for CCOC(=O)c1c(-c2ccc(CBr)cc2)nc2ccccn12 here?
Answer: The melting point was 131 °C.

Question: Which melting point does the source give for C#CC1(OC(=O)c2ccccc2)C(COC(=O)c2ccc(Cl)cc2)OC(OC(=O)c2ccccc2)C1OC(=O)c1ccccc1 (stereo unspecified) here?
Answer: The melting point was 66 to 68 °C.

Question: Which melting point does the source give for C=CCn1c(=O)c2cc(C(=O)OCC)cn2c2ccccc21 here?
Answer: Its melting point is 177 to 178 °C.

Question: With Cc1ccc(-c2c(O)nc(S)nc2O)cc1 as the compound, how does the melting point read?
Answer: The melting point was 290 to 292 °C.

Question: Which melting point does the source give for CS(=O)(=O)NCCCCCCCCn1cnc2c(N)nc3ccccc3c21 here?
Answer: The melting point was 153 to 155 °C.

Question: With O=C(N1CCC(O)(c2ccccc2)CC1)C(F)(F)F as the compound, how does the melting point read?
Answer: The melting point was 123 to 125 °C.

Question: Which melting point does the source give for Cc1onc(-c2ccccc2)c1-c1csc(N)n1 here?
Answer: The melting point was 223 to 224 °C.

Question: Which melting point does the source give for CCOC(=O)c1cc2ccc3oc4ccccc4c3c2n1C here?
Answer: Its melting point is 114 to 116 °C.

Question: Which melting point does the source give for CSc1nccc(-c2ccc(NC(=O)c3cc(F)cc(N4CCOCC4)c3)c3ccccc23)n1 here?
Answer: Its melting point is 135 to 138 °C.

Question: With COC(=O)Cc1c(C)n(O)c(=O)c2ccccc12 as the compound, how does the melting point read?
Answer: The melting point was 185 to 190 °C.

Question: Which melting point does the source give for Nc1ccn(-c2ccc(Br)cc2)n1 here?
Answer: Its melting point is 122 to 123 °C.

Question: Which melting point does the source give for Cc1cc(CN(Cc2cc(C(F)(F)F)cc(C(F)(F)F)c2)c2nnn(C)n2)c(N(CC2CC2)CC2CC2)nc1C here?
Answer: Its melting point is 103 °C.

Question: With N#Cc1cn(-c2cccnc2)nc1-c1ccc([N+](=O)[O-])o1 as the compound, how does the melting point read?
Answer: Its melting point is 206 to 207 °C.

Question: Which melting point does the source give for Cc1cc(OCc2ccccc2)c(C)cc1C=O here?
Answer: The melting point was 48 to 49 °C.

Question: For Cc1oc(-c2ccco2)nc1COc1ccc(CO)cc1, which melting point is on record?
Answer: Its melting point is 91 to 92 °C.

Question: With O=S(=O)(c1ccccc1)c1ccccn1 as the compound, how does the melting point read?
Answer: The melting point was 90 to 91 °C.

Question: With Cc1ccc(-c2ccc3ccccc3c2C(=O)N(C)C)cc1 as the compound, how does the melting point read?
Answer: Its melting point is 145 to 146 °C.

Question: For Cc1cccc(C(O)COc2ccc(CC3SC(=O)NC3=O)cc2)n1 (stereo unspecified), which melting point is on record?
Answer: Its melting point is 154 to 155 °C.

Question: Which melting point does the source give for O=CNNc1ccc(NC(=O)c2cccc([N+](=O)[O-])c2)cc1 here?
Answer: Its melting point is 185 to 187 °C.

Question: For CCCOc1nc(N)c2ncn(C3C=CCCC3)c2n1 (stereo unspecified), which melting point is on record?
Answer: Its melting point is 157 to 159 °C.

Question: With COc1ccc(-c2cnc(N)c(SC)n2)cc1 as the compound, how does the melting point read?
Answer: The melting point was 139 to 140 °C.

Question: With O=C(Nc1ccc(CN2CCCC2)cc1)C1=Cc2cc(-c3ccccc3)ccc2CC1 as the compound, how does the melting point read?
Answer: The melting point was 186 to 187 °C.

Question: Which melting point does the source give for N#CC(CCSC(F)(F)F)S(=O)CCC(F)(F)C(F)(F)F (stereo unspecified) here?
Answer: The melting point was 41 to 43 °C.

Question: Which melting point does the source give for c1cc(-c2nc3cc4[nH]cnc4cc3[nH]2)ccn1 here?
Answer: Its melting point is greater than 280 °C.

Question: With Fc1cccc(-c2nc3cnccc3[nH]2)c1 as the compound, how does the melting point read?
Answer: Its melting point is 290 to 291 °C.

Question: With COc1ccc(Cc2cc(C3CCN(C(=O)Nc4ccccc4)CC3)nc(N)n2)cc1 as the compound, how does the melting point read?
Answer: The melting point was 178 to 180 °C.

Question: Which melting point does the source give for COc1ccc(Nc2nc(N)nc3c(OC)cccc23)c(C)c1 here?
Answer: Its melting point is 185 to 187 °C.

Question: For Cc1c(F)cccc1NS(=O)(=O)c1cc(S(=O)(=O)Nc2cccc(F)c2C)c2cc(O)ccc2c1, which melting point is on record?
Answer: The melting point was 128 to 130 °C.

Question: For CC(C)(C)c1ccc([PH](=O)c2ccc(C(C)(C)C)cc2)cc1, which melting point is on record?
Answer: Its melting point is 142 °C.

Question: Which melting point does the source give for CCCCCCCC(=O)NCc1ccsc1 here?
Answer: The melting point was 71 to 72 °C.

Question: With CCCNC(=O)C(C)=Cc1ccc2c(c1)c(Cc1ccc(C(=O)O)cc1OC)cn2C as the compound, how does the melting point read?
Answer: Its melting point is 89 to 95 °C.

Question: For CCOC(=O)c1cn(C)c2cc(Br)ccc2c1=O, which melting point is on record?
Answer: Its melting point is 189 to 191 °C.

Question: With CCn1cc(C(=O)O)c(=O)c2c(C)c(F)c(N3CCC(N)C3)c(F)c21 (stereo unspecified) as the compound, how does the melting point read?
Answer: The melting point was 218 to 220 °C.

Question: For Nc1sc2c(c1C(=O)c1ccc(Br)s1)CCN(Cc1ccccc1)C2, which melting point is on record?
Answer: The melting point was 87 to 89 °C.

Question: Which melting point does the source give for Cc1c2c(cn1C)NC(=O)C(O)N=C2c1ccccc1 (stereo unspecified) here?
Answer: The melting point was 243 °C.

Question: With Cc1ncc(C(=O)O)nc1C as the compound, how does the melting point read?
Answer: Its melting point is 187 °C.

Question: For OCC1OC(n2cnc3c(NCCc4csc5ccccc45)ncnc32)C(O)C1O (stereo unspecified), which melting point is on record?
Answer: The melting point was 173 to 174 °C.

Question: Which melting point does the source give for COc1cc(OC)cc(N2Cc3cnc(S(C)=O)nc3NC2=O)c1 (stereo unspecified) here?
Answer: The melting point was 220 to 222 °C.

Question: For COc1cc(OC)c2c(=O)cc(-c3ccccc3Cl)oc2c1C1CCN(C)C1C(=O)O (stereo unspecified), which melting point is on record?
Answer: Its melting point is 165 to 167 °C.

Question: For O=C(O)c1cccc([N+](=O)[O-])c1NCc1ccccc1Cl, which melting point is on record?
Answer: The melting point was 164 °C.

Question: With C#CCC1CC2C(CCC3(C)C(=O)CCC23)C2CCC(=O)C=C12 (stereo unspecified) as the compound, how does the melting point read?
Answer: The melting point was 186 to 188 °C.

Question: Which melting point does the source give for Cn1ncc2c1-c1c(Sc3ccccn3)sc(C(=O)O)c1CC2 here?
Answer: The melting point was 231 to 232 °C.
